US8133882B2, “Quinolone derivative or pharmaceutically acceptable salt thereof” (Astellas Pharma Inc, priority 2006, dated 2012)

Legend:
[1] = target: T1, Human P2Y12 (Homo sapiens, UniProt Q9H244); assay: Substitution test for the binding of human P2Y12 with 2-methylthio-ADP (2-MeS-ADP); conditions: 30 nM final concentration of compound; P2Y12 expression C6-15 cell membrane fraction; 0.75 nM [3H]- or [33P]-2-MeS-ADP
T1 construct: expressed in transfected cells; membrane fraction used
Experimental: Test Method (2) Substitution Test for the Binding of Human P2Y12 with 2-methylthio-ADP (2-MeS-ADP)
A C6-15 cell was inoculated into a 10 cm petri dish to a density of to 1×10^6 cells using DMEM medium and cultured for 1 day, and then 8 μg of a plasmid pEF-BOS-dfhr-human P2Y12 and 0.8 μg of pEF-BOS-neo (Nucleic Acid Res., 18, 5322, 1990) were gene-transferred using a transfection reagent (LipofectAMINE 2000; mfd. by GIBCO BRL).
24 hours after the aforementioned gene transfer operation, the gene-transferred cells were recovered, suspended in DMEM medium supplemented with 0.6 mg/ml of G 418 (mfd. by GIBCO BRL) and then serially diluted and inoculated again in a 10 cm petri dish. The colonies appeared after 2 weeks were individually obtained and used in the following test as P2Y12 protein expression C6-15 cells (WO 02/36631, Mol. Pharmacol., 60, 432, 2001).
After culturing the P2Y12 protein expression C6-15 cells, the cells were recovered. […]
A 100 μl portion of the P2Y12 protein expression C6-15 cell membrane fraction (100 μg/ml) obtained in the above was mixed with 1.5 μl of a test compound solution and 50 μl of 0.75 nM [^3H]-2-MeS-ADP (80 Ci/mmol, mfd. by Amersham Pharmacia Biotech) or 0.75 nM [^33P]-2-MeS-ADP (2100 Ci/mmol, mfd. by Perkin Elmer), incubated at room temperature for 1 hour in 50 mM Tris-HCl (pH 7.4) containing 100 mM NaCl and 50 mM MgCl2, and then recovered on a glass filter using a cell harvester. A microscintillator was added to the glass filter, and the radioactivity was measured using a liquid scintillation counter. Those to which the solvent alone was added and 1.5 μl of 250 μM ADP was added in the aforementioned test at the same time were regarded as total binding and nonspecific binding, and their radioactivity was measured. By regarding the total binding and nonspecific binding as inhibition ratio 0% and 100% respectively, inhibition ratio (%) of each compound to be tested was calculated.

[2] = system: human platelet aggregation (ADP-induced, platelet rich plasma); assay: Human platelet aggregation inhibition activity measuring test (ADP-induced, PRP); type: cell-based; conditions: 10 μM final concentration of compound; human PRP 3×10^8 platelets/ml; ADP (50 μM, 10 μl) induced; area under platelet aggregation curve
Experimental: Test Method (1) Human Platelet Aggregation Inhibition Activity Measuring Test
A blood sample was collected from a healthy volunteers (adult) using a syringe containing 1/10th volume of 3.8% sodium citrate solution and centrifuged at 160×g for 10 minutes, thereby separating platelet rich plasma (PRP) of the supernatant. Remaining blood after the collection of PRP was centrifuged at 1,800×g for 10 minutes to separate platelet poor plasma (PPP). The number of platelets in the PRP was measured by an automatic blood cell counter (MEK-6258, Nihon Kohden Corp.), and then the number of platelets was adjusted to 3×10^8/ml by adding PPP to PRP and used in the following test. The ADP as an inducer of platelet aggregation was purchased from MC Medical. Platelet aggregation was measured using an aggregometer (MCM Hematracer 212; MC Medical). That is, 80 μl of PRP of 3×10^8 platelets/ml and 10 μl of a test compound solution or a solvent (10% DMSO or 10% DMSO-9% hydroxypropyl-β-cyclodextrin-4.5% d-mannitol) were incubated at 37° C. for 1 minute, and then 10 μl of ADP (50 μM) was added thereto to induce platelet aggregation, and changes in transmitted light were recorded for 5 minutes. The inhibition ratio was calculated using the area under platelet aggregation curve as an index.
In this connection, REx represents reference example number, and Ex Example compound number. In addition, Reference Examples 1 and 2 are the Example compounds described in the aforementioned Patent Reference 7, and were produced in accordance with the method described in said patent reference.

[3] = system: rat platelet aggregation (ADP-induced, PRP); assay: Rat platelet aggregation inhibition test (oral administration, ex vivo ADP-induced aggregation); type: in vivo; conditions: dose 30 mg/kg oral, male SD rat, blood collected 2 hours after administration
Experimental: Test Method (3) Rat Platelet Aggregation Inhibition Test and Measurement of Test Compound Concentration in Plasma
By adding sodium hydroxide aqueous solution to the compound of the present invention, 0.5% methyl cellulose aqueous solution or suspension was prepared. The thus prepared liquid was orally administered using a sonde to a male SD rat (5 to 7 weeks of age) of after 12 hours or more of fasting. After 2 hours of the compound administration, blood was collected using a syringe containing 1/10th volume of 3.8% sodium citrate solution. In the same manner as in Test method (1), PPP and PRP of 3×10^8 platelets/ml were prepared. A 90 μl portion of the PRP of 3×10^8 platelets/ml was incubated at 37° C. for 1 minute, and then 10 μl of ADP (50 μM) was added thereto to induce platelet aggregation, and changes in transmitted light were recorded for 5 minutes. The inhibition ratio was calculated using the area under platelet aggregation curve as an index.

T1 sequence (Q9H244 whole entry): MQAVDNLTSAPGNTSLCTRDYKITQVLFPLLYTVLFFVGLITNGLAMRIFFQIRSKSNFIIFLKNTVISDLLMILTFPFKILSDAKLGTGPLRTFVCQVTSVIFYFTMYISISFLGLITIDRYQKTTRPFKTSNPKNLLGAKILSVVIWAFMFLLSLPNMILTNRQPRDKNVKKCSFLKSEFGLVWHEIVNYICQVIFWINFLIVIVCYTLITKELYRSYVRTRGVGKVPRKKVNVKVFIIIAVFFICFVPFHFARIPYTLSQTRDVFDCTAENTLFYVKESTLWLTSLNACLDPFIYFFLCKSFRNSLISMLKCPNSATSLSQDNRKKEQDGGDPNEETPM

Row | SMILES | inhibition at 0.03 µM [1] [%] | inhibition at 10 µM [2] [%] | inhibition at 30 mg/kg [3] [%]
1 | O=C(O)CCC(=O)Nc1cn(C2CCCC2)c2cc(NC3CCCCC3)c(F)cc2c1=O [Ex 2, 4-{[7-(cyclohexylamino)-1-cyclopentyl-6-fluoro-4-oxo-1,4-dihydroquinolin-3-yl]amino}-4-oxobutanoic acid] | 89 | 93 | 
2 | O=C(O)CNC(=O)c1cn(C2CCCC2)c2cc(NC3CCCCC3)c(F)cc2c1=O [REx 2, ({[7-(cyclohexylamino)-1-cyclopentyl-6-fluoro-4-oxo-1,4-dihydroquinolin-3-yl]carbonyl}amino)acetic Acid] | 86 | 79 | -7
3 | O=C(O)CCCNC(=O)c1cn(C2CCCC2)c2cc(NC3CCCCC3)c(F)cc2c1=O [REx 1, 4-({[7-(cyclohexylamino)-1-cyclopentyl-6-fluoro-4-oxo-1,4-dihydroquinolin-3-yl]carbonyl}amino)butanoic Acid] | 76 | 64 | 11
